Row | SMILES | melting point [°C]
1 | N#Cc1cnc2c(sc3ccccc32)c1Nc1ccc(Oc2ccccc2)cc1 | 230 to 233
2 | Nc1nc(Cl)nc2c1ncn2C1OC(COC2CC2)C(O)C1O (stereo unspecified) | 122 to 124
3 | CC(=O)SC(C)C(Cc1ccccc1)C(=O)Nc1cccc(C(=O)O)c1 (stereo unspecified) | 180 to 182
4 | CCCc1sc(C#N)c2c1C(=O)CC(C)(C)C2 | 38 to 40
5 | CCC(C)(C)OOC(C)(CCC(=O)NNC(=O)C(C#N)=C(c1ccccc1)c1ccccc1)OOC(C)(C)CC | 145 to 148
6 | CC(=O)SCCC1NSc2cc(S(N)(=O)=O)c(Cl)cc2N1 (stereo unspecified) | 192 to 195
7 | CC(C#Cc1ccc(C=Cc2ccc(F)cc2)o1)N(O)C(N)=O (stereo unspecified) | 177
8 | O=C(Nc1cccc(C(F)(F)F)c1)C(=O)N1CCC(Cc2ccc(F)cc2)CC1 | 113 to 115
9 | C=CCONC(CCC)=C1C(=O)CC(C2CCOCC2)CC1=O (stereo unspecified) | 55 to 56
10 | CCCCCCCCCCCCNC(=O)C1CCC(=O)N1 (stereo unspecified) | 114 to 116
11 | O=C(Nc1cccc(C(F)(F)F)c1)N1CCN(Cc2ccc(Nc3ccnc4cc(C(F)(F)F)ccc34)cc2)CC1 | 198 to 200
12 | O=C(Nc1cccc2cnccc12)NC1CC2(CCC2)Oc2c(O)cccc21 (stereo unspecified) | 246 to 247
13 | CC(C(=O)NO)c1ccc(C(=O)c2cccs2)cc1 (stereo unspecified) | 144
14 | O=C(NCCOc1ccc(CC(Oc2cc(F)cc(F)c2)C(=O)O)cc1)c1ccc(-c2ccccn2)cc1 (stereo unspecified) | 150 to 151
15 | O=C1c2ccccc2C(=O)N1CCc1cccc(N2C(=O)N(c3c(Cl)cccc3Cl)Cc3cnc(Nc4ccccc4)nc32)c1 | 142
16 | O=C(Nc1cc(C(F)(F)F)ccc1N1CCCCC1)c1ccncc1 | 96 to 98
17 | CCc1cccc(CC)c1NC(=O)Nc1oc2ccc(Cl)cc2c1-c1ccccc1C | 233 to 234
18 | CCCCCCCCCCCCCCCCCCOc1cc(N)cc(C(N)=O)c1 | 139 to 143
19 | COC(=O)C1=C(C)Nc2c(c(-c3ccccc3)nn2-c2ccccc2)C1c1cccc([N+](=O)[O-])c1 (stereo unspecified) | 186 to 189
20 | CN1CC=C(c2c[nH]c3c(Cl)c(Cl)ccc23)CC1 | 246 to 249

Row | SMILES | melting point [°C]
21 | Nc1cc(Cl)cc2c1NCCC2=O | 142 to 144
22 | CS(=O)(=O)CCCCC(c1c(F)cccc1F)S(=O)(=O)c1ccc(Cl)cc1 (stereo unspecified) | 118 to 119
23 | CCCCc1c(OS(=O)(=O)c2ccc(C)cc2)n(-c2ccccc2)n(-c2ccccc2)c1=O | 112 to 121
24 | Nc1cccnc1Nc1ccccc1C(=O)c1cccc(F)c1 | 135 to 137
25 | O=c1[nH]c(-c2csc3ccccc23)nc2ccc(N3CCOCC3)cc12 | > 300
26 | CCCc1c(OCCCOc2cccc3c2CCCC3)ccc2c1OC(CCCC=O)(CCCC=O)CC2=O | 72 to 73
27 | O=C(c1nc2ccccc2n1Cc1ccc(F)cc1)C1CCN(CCC2(Cc3ccc(C(F)(F)F)cc3)CCN(Cc3ccccc3)C2=O)CC1 (stereo unspecified) | 104 to 106
28 | S=c1n(-c2ccc(Cl)cc2Cl)nc2n1CCCC2 | 118 to 120
29 | O=C1NC(=O)C(c2ccc(OCCC(c3ccccc3)(c3ccccc3)c3ccccc3)cc2)S1 (stereo unspecified) | 85 to 87
30 | FC(Br)C=Cc1ncn(C(c2ccccc2)(c2ccccc2)c2ccccc2)n1 (stereo unspecified) | 145 to 146
31 | CC1(C)C2CCC1(CN1CN(CC34CCC(CC3)C4(C)C)CN(CC34CCC(CC3)C4(C)C)C1)CC2 | 175 to 180
32 | Cc1noc(NS(=O)(=O)c2ccccc2-c2ccc(-c3ncco3)cc2CN(C)C(=O)Cc2ccccc2)c1C | 114 to 122
33 | O=C(O)CNC(=O)c1c(F)cccc1[N+](=O)[O-] | 148 to 150
34 | OC(Cn1ccnc1)c1ccccc1 (stereo unspecified) | 146 to 148
35 | CC(C)C[C@H](NC(=O)c1cnccn1)C(=O)O | 36 to 38
36 | O=Cc1cnn2c(-c3cccc(C(F)(F)F)c3)ccnc12 | 168 to 170
37 | CCOC(=O)Nc1cc(COC(=O)Oc2ccc(N(CCCl)CCCl)cc2)cc(Nc2c3ccccc3nc3ccccc23)c1 | 131 to 133
38 | COc1cc(Nc2c(C#N)cnc3cc(F)c(OCCN4CCOCC4)cc23)c(Cl)cc1Cl | 166 to 168
39 | C[C@@H](OC(=O)N1C(C)(C)COC1(C)C)C(C)(C)O | 53

More lines, now with the values ahead:

Row | melting point [°C] | SMILES
40 | 124 to 126 | COc1cc2[nH]c(SCc3nccc(N4CCOCC4)c3F)nc2cc1C
41 | 189 to 191 | COc1ccc(-n2c(-c3ccc(Cl)cc3Cl)nc(C(=O)O)c2C)cc1
42 | 212 to 214 | CCOC(=O)c1cn(-c2ccc(OC)cc2)c2cc(F)c(F)cc2c1=O
43 | 218 to 219 | N#Cc1c[nH]cc1-c1ccc(F)c(Cl)c1F
44 | 298 to 302 | Oc1nc2ccc(F)cc2n2c(C(F)(F)F)nnc12
45 | 60 to 62 | CCCCOc1ccc(-c2nc(-c3ccccc3Cl)nn2C)c(Cl)c1
46 | 296 to 298 | CCOC(=O)c1c(-c2ccccc2C)c2cc3c(cc2[nH]c1=O)CCC3
47 | 166 to 168 | COC(=O)c1ccc2nc(C)n(Cc3ccc(Cl)cc3OC)c2n1
48 | 158 | CC#CCOc1ccc(S(=O)[C@@H](C(=O)NO)c2ccc(-c3cccs3)cc2)cc1 (stereo partly specified)
49 | 278 to 280 | CC1=C(C#N)C(c2cccc([N+](=O)[O-])c2)n2ccnc2N1 (stereo unspecified)
50 | 94 to 100 | O=C(CCCN1CCN(c2cc3ccccc3cn2)CC1)c1cccs1
51 | 175 | Cc1cc2ncc(Nc3cccc(Cl)c3)nc2cc1C
52 | 103 to 104 | O=C(O)/C(=N/OCc1ccccc1)c1ccc(OCCOc2ccc3ccccc3c2)s1
53 | 144 to 146 | CC(O)c1ccc(Cl)c(S(N)(=O)=O)c1 (stereo unspecified)
54 | 96 to 97 | CON(C)C(=O)Nc1ccc(OCCc2cccc(C)n2)cc1
55 | 166 to 167 | COc1ccc2c(c1)sc1ncc(C(O)CCc3ccccc3)n12 (stereo unspecified)
56 | 122 to 124 | O=C1CCCN1N=c1sc2ccccc2s1
57 | 136 to 138 | CC(=O)OC1CSC(Oc2cncc(-c3ccc(C#N)cc3C)c2)C(OC(C)=O)C1OC(C)=O (stereo unspecified)
58 | 59 to 62 | CSc1nccn1-c1cccc(C(=O)CC(=O)Nc2cc(-c3ccccc3F)c(OC(C)(C)C)cc2NC(=O)OC(C)(C)C)c1

Row | melting point [°C] | SMILES
59 | 168 to 170 | CS(=O)CCNC(=O)CC(O)(Cn1cncn1)c1ccc(Cl)cc1Cl (stereo unspecified)
60 | 222 to 223 | COc1cc(-c2cnc3[nH]cc(C(=O)C(C)(CO)CO)c3n2)cc(OC)c1OC
61 | 92 to 95 | CCOC(=O)c1cccc(CCC(CO)n2cnc(C(N)=O)c2)c1 (stereo unspecified)
62 | 277 to 279 | CC(=O)Nc1ccc2c3c1c(=O)c(C(=O)O)cn3C(C)CC2 (stereo unspecified)
63 | 139 to 140 | CC/C(=C\c1ccc(OCCOC)cc1Oc1ncc(Cl)cc1Cl)C(=O)O
64 | 181 to 182 | CCOC(=O)c1c(CS(=O)(=O)c2nc3ccccc3[nH]2)nc2cc(OC)c(OC)cc2c1-c1ccc(OC)c(OC)c1
65 | 122 to 123 | CCCc1nn(-c2ccc(C(F)(F)F)cn2)cc1CCCOc1c(CC(=O)O)cccc1OC
66 | 111 to 115 | CNC1=NN(C(=O)c2cccc(C(F)(F)F)c2)C(C)(C)S1
67 | 221 to 223 | CCOC(=O)c1cnc(Nc2cc(OC)ccc2OC)[nH]c1=O
68 | 190 | O=C1c2ccccc2C(O)N1CCCN1CCN(c2ccc(O)cc2)CC1 (stereo unspecified)
69 | 60 to 62 | Cn1c(=N)sc2cc(OC(F)(F)F)ccc21
70 | 141 | CC(C)c1ccc(N(Cc2ccc(N(C)C)cc2)C(=O)C2CCCc3cc(OCCO)ccc32)cc1 (stereo unspecified)
71 | 191 to 193 | COCCCNC(=O)c1cnn(C)c1C(=O)Nc1ccn2nc(-c3ccccc3)nc2c1
72 | 151 to 155 | CC(=O)OCCCc1cc(C=C2SC(=S)N(C)C2=O)cc(CCCOC(C)=O)c1O
73 | 142 | Cc1c(CC(C)(C)C(=O)O)n(Cc2ccc(Cl)cc2)c2ccc(Cl)cc12
74 | 165 to 167 | Cc1cc(C)nc(-c2ccc(CN3CCN(c4ccc(O)cc4)CC3)cc2)n1
75 | 217 to 218 | COc1cc(C(O)Cc2c(C)cncc2C)nnc1OC (stereo unspecified)
76 | 145 to 147 | CS(=O)(=O)NCCCCC(=O)Nc1nc2c(s1)CCCc1ccc(F)cc1-2
77 | 97 to 98 | COc1cc(OCCOc2ccc3ccccc3c2)cc(OC)c1C(C)=O

Row | melting point [°C] | SMILES
78 | 187 to 190 | O=C(O)c1cc(=O)c(Oc2ccc(C3CCCCC3)cc2)co1
79 | 164 to 166 | CCC(CC)(CC(=O)Nc1ccc2ccc(OCc3ccc4ccc(F)cc4n3)cc2c1)C(=O)O
80 | 102 | Cc1cc2n(c1C(=O)c1cccs1)CCC2C(=O)OC(C)C (stereo unspecified)
81 | 222 to 224 | CC(=O)Nc1cccc(C=CC(=O)C2C(=O)OC(=O)C(C(C)=O)=C2O)c1 (stereo unspecified)
82 | 212 to 213 | COc1ccc(/C=C/C(=O)Nc2cc3ccccc3cc2C(=O)O)cc1OC
83 | 150 to 152 | COC(=O)c1cc(OC)cc(-c2cccc([N+](=O)[O-])c2)n1
84 | 141 | C#CCNc1c(-c2c(F)cc(F)cc2F)c(Cl)nc2ncnn12
85 | 81 to 85 | COc1ccc(CCNC(=O)CN(C(=O)OCc2ccccc2)c2ccc(C)cc2)cc1OC
86 | 154 to 156 | Cc1ccc(Sc2ccc3c(c2)CC[C@H]2N(C)C(=O)CC[C@]32C)cc1
87 | 133 to 136 | CCc1cccc(C)c1CNc1cc(C(=O)N(C)C)nc2c1nc(C)n2C
88 | 99 to 100 | CCOC(=O)c1ccc(CCCC2NC(=O)CS2)cc1 (stereo unspecified)
89 | 236 to 238 | CCc1cc(-c2nnc3c4ccccc4c(OCc4ncn(C)n4)nn23)no1
90 | 65 to 67 | CN1C(=O)N(CC(COc2ccc(-c3ccc(C#N)cc3)cc2)N(O)C=O)C(=O)C1(C)C (stereo unspecified)
91 | 191 to 192 | Cc1cc(-n2ccc(OCc3ccccc3)cc2=O)oc1C(=O)NCc1ccccc1
92 | 163 to 166 | COc1cccc2c(CCCNC3COc4c(F)ccc(C(N)=O)c4C3)coc12 (stereo unspecified)
93 | 218 to 222 | O=C(O)CN1CC(=O)NC1=NN=Cc1ccccc1
94 | 135 to 136 | COc1cc(OC)nc(NC(=O)NS(=O)(=O)c2c(Cl)cccc2CN2CCOC2=O)n1
95 | 209 to 211 | COc1ccccc1NS(=O)(=O)c1ccc(N2CCNC2=O)cc1
96 | 158 | COc1ccc2c(c1)cc(CO)n2C
